Data as given in article PMC5607274, “An iterative compound screening contest method for identifying target protein inhibitors using the tyrosine-protein kinase Yes” (Scientific Reports, 2017).

Target: T1, human recombinant Yes [a.a. 2–543 (end)] (Homo sapiens, UniProt P07947)
T1 construct: human recombinant Yes [a.a; 2–543 (end)]; purchased BPS Bioscience 40488
Test: ADP-Glo kinase assay, inhibition rates of Yes phosphorylation activity (first and second screening)
Type: biochemical
Details: first screening; mean of n = 4 wells; 10 μmol L−1 compound
Procedure, shortened: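 ADP-Glo luminescence measured inhibition of human recombinant Yes (a.a. 2–543) phosphorylation activity. In the first screen, each compound ran in 4 wells and inhibition rates were averaged. The second screen retested hits as compounds dissolved from fresh powder.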

T1 sequence (P07947 2-543): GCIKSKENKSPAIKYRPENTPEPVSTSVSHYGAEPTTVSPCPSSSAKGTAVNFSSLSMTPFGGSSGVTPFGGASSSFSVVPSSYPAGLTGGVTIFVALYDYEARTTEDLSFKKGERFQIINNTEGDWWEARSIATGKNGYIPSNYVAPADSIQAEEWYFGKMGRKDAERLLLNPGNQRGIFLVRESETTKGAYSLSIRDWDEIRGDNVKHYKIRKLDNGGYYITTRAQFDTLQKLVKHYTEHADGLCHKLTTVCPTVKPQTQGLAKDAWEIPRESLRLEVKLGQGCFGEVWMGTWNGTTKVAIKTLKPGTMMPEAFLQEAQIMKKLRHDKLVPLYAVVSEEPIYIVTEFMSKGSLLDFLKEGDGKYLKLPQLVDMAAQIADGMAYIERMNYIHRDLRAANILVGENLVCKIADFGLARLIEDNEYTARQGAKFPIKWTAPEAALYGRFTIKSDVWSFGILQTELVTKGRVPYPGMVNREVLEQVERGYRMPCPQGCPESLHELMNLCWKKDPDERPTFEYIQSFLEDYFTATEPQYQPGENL

First screening IR (inhibition rate)	SMILES
-10%	Cc1ccc(C(CNC(=O)c2cc(Cl)c[nH]2)N2CCOCC2)o1 (stereo not shown) [Compound Z254387106]
8%	CCN1CCN(S(=O)(=O)C2CS(=O)(=O)c3ccccc32)CC1 (stereo not shown) [Compound Z1031094372]
-4%	CCC(CC)N(C)S(=O)(=O)c1ccc(S(N)(=O)=O)cc1 [Compound Z369246436]
2%	Cc1ccc(Nc2ncnc3sc4c(c23)CCCC4)c(O)c1 [Compound Z85929120]
26%	CC(=O)Nc1ccc(/C=C2/CC(C(C)(C)C)Cc3c2nc2ccccc2c3C(=O)O)cc1 (stereo not shown) [Compound Z46108738]
9%	Cc1n[nH]c(C)c1C(C)C(=O)NCC(c1cccc(Cl)c1)N1CCCC1 (stereo not shown) [Compound Z1172045589]
-51%	O=[N+]([O-])c1ccc(N2CCC(C(O)c3ncc[nH]3)CC2)nc1-c1ccccc1 (stereo not shown) [Compound Z1823608663]
0%	CCCCCCCCN1C(=O)/C(=C/c2c(NCCCN3CCOCC3)nc3c(C)cccn3c2=O)SC1=S [Compound Z56863983]
-4%	O=C(c1ccc(Cl)c(S(=O)(=O)N2CCCCC2)c1)N1CCn2c1nc1ccccc12 [Compound Z204253774]
15%	Cc1cnc(CCSc2ncc(-c3ccc(F)cc3)o2)cn1 [Compound Z1688195829]
3%	O=C1COc2ccc(C(=O)/C=C/c3ccc(OC(F)F)cc3)cc2N1 [Compound Z94572736]
13%	Cc1nc2ccc(NC(=O)c3cc4ccccc4oc3=O)cc2s1 [Compound Z28296849]
6%	CCN1CCC(NC(=O)C2CCN(S(=O)(=O)c3c(C)c(C)cc(C)c3C)CC2)CC1 [Compound Z85145044]
4%	Cc1ccc(S(=O)(=O)N2CCCN(S(=O)(=O)N3CC(C)CC(C)C3)CC2)cc1 (stereo not shown) [Compound Z300467774]
3%	Cc1nn(Cc2ccc(F)cc2)c2sc(C(=O)Nc3ccc(N4CCOCC4)cc3N3CCOCC3)cc12 [Compound Z28027525]
-4%	CCCN(CCC)S(=O)(=O)c1cccc(S(=O)(=O)N(C)C)c1 [Compound Z285950112]
2%	COc1ccc(-n2c(SCC(=O)N3CCCCCC3)nnc2-c2ccc(Cl)cc2)cc1 [Compound Z19871234]
11%	O=C(Nc1cc(-c2cccc(F)c2F)[nH]n1)c1ccc2nncn2c1 [Compound Z1423687928]
9%	O=C(CN1CCN(c2nc(-c3cccnc3)nc3scc(-c4ccccc4)c23)CC1)N1CCCCC1 [Compound Z165261498]
42%	O=C(NC1(C(F)(F)F)Oc2ccccc2O1)Sc1ccccc1 [Compound Z56864837]
6%	CCn1c(C)cc(C(=O)N2CCc3[nH]c4ccccc4c3C2)c1C [Compound Z231937310]
-10%	CCCn1c(CSc2ncn(-c3ccccc3)n2)nc2cc(S(=O)(=O)N(C)C)ccc21 [Compound Z227429876]
-1%	Nc1nccnc1C(=O)Nc1ncc(Cc2cc(F)cc(F)c2)s1 [Compound Z281652038]
13%	Cc1sc2nc(-c3cccnc3)nc(N3CCOCC3)c2c1-c1ccccc1 [Compound Z31211547]
14%	Cc1occc1C(=O)Nc1cc(Nc2nccc(C(F)(F)F)n2)ccc1F [Compound Z645121524]
9%	Cc1cnc(NC(=O)CCCc2nc3ccccc3c(=O)[nH]2)s1 [Compound Z29324663]

First screening IR (inhibition rate)	SMILES
9%	CCCOc1cc(/C=C2/C(=O)Nc3ccc(Cl)cc32)ccc1OC [Compound Z44304730]
-3%	CC(=O)c1ccc(-c2ccc(C(=O)Nc3cc(F)ccc3C)o2)cc1 [Compound Z30903878]
8%	O=C(NCC1CCCCC1)c1cc(-c2ccccc2)nc2c1cnn2Cc1ccncc1 [Compound Z108748406]
2%	CCOC(=O)c1c(-c2ccc(OC)c(OC)c2)csc1NC(=O)CN1CCN(C(=O)c2ccccc2)CC1 [Compound Z46404770]
11%	CN(C)S(=O)(=O)c1ccc(S(N)(=O)=O)cc1 [Compound Z45415603]
5%	CC1CCCC(C)C12NC(=O)N(CN(C)CC(=O)Nc1ccccc1Cl)C2=O (stereo not shown) [Compound Z286135428]
-14%	Cc1ccc(Oc2ccc(NC(=O)N3CCNC(=O)C3)cn2)cc1 [Compound Z435639920]
-3%	CSCCC(NC(=O)c1ccco1)C(=O)NCc1ccc(CN(C)C)cc1 (stereo not shown) [Compound Z102556578]
1%	O=S1(=O)C=C(Cl)C(Br)C1 (stereo not shown) [Compound Z57056476]
12%	CC(C)CN(C1CCS(=O)(=O)C1)S(C)(=O)=O (stereo not shown) [Compound Z133987698]
7%	Cc1cc(C)c(C(=O)COc2ncnc3ccccc23)cc1C [Compound Z18537178]
10%	O=C(CSc1nnc(-c2cccnc2)n1C1CC1)Nc1nc(-c2ccc(F)cc2)cs1 [Compound Z92534919]
5%	CC(Sc1nnnn1C)C(=O)Nc1ccc2c(c1)OCO2 (stereo not shown) [Compound Z18519758]
-5%	O=C(CN1CCOCC1)N1CCN(Cn2nc(-c3ccccc3)n(-c3ccc(F)cc3)c2=S)CC1 [Compound Z238616284]
7%	O=C(CSc1nc2ccccc2[nH]1)NC(=O)NCc1ccccc1 [Compound Z19649872]
9%	Cc1cnc(C)c(NCc2cccc(Cn3ccnc3C)c2)n1 [Compound Z1687428428]
1%	COc1ccccc1NC(=O)c1ccc(NC(=O)COc2ccc(C3SCCS3)cc2)cc1 [Compound Z17289317]
26%	CCCN(CCC)c1ccc(/C=C/C(=O)c2ccc3c(c2)NC(=O)CO3)cc1 [Compound Z114950486]
46%	COCCNC(=O)/C(=C\c1ccc(-c2cccc(Cl)c2)o1)NC(=O)c1ccc(OC)cc1 [Compound Z57239420]
-1%	CN(C)S(=O)(=O)c1ccc(CS(=O)(=O)C2CCCC2)o1 [Compound Z1147565999]
13%	O=C(CSc1n[nH]c(-c2ccccc2)n1)N1N=C(c2ccc(Cl)cc2)CC1c1ccco1 (stereo not shown) [Compound Z25399394]
5%	Fc1ccc(-n2cc(-c3ccccc3)c3c(N4CCOCC4)ncnc32)cc1 [Compound Z57455467]
-3%	Cc1ccnc(NCC2CCN(Cc3cccc(C(N)=O)c3)C2)c1 (stereo not shown) [Compound Z990550860]
-9%	CC(Nc1ccc([N+](=O)[O-])cc1[N+](=O)[O-])c1nnc2ccccn12 (stereo not shown) [Compound Z128086498]
-6%	OCCn1ncc2c(NCCc3nnc4ccccn34)ncnc21 [Compound Z990848218]
23%	O=C(Nc1cccc(S(=O)(=O)NC2=NCCCCC2)c1)C1(c2cccc(Cl)c2)CC1 [Compound Z316438002]
